According to ChEMBL document CHEMBL5154932, “Discovery of 1,6-Naphthyridin-2(1H)-one Derivatives as Novel, Potent, and Selective FGFR4 Inhibitors for the Treatment of Hepatocellular Carcinoma” (J Med Chem, 2022):

Legend:
[1] = rat, in vivo, po, 10 mg/kg
[2] = rat, in vivo, po, 10 mg/kg; remark: listed apart in the source
[3] = rat, in vivo, iv, 1 mg/kg
[4] = rat, in vivo, po, 10 mg/kg; remark: listed apart in the source
[5] = rat, in vivo, po, 10 mg/kg; remark: listed apart in the source
[6] = rat, in vivo, iv, 1 mg/kg; remark: listed apart in the source
[7] = rat, in vivo, iv, 1 mg/kg; remark: listed apart in the source
[8] = rat, in vivo, iv, 1 mg/kg; remark: listed apart in the source
[9] = rat, in vivo, iv, 1 mg/kg; remark: listed apart in the source
[10] = rat, in vivo, iv, 1 mg/kg; remark: listed apart in the source
in vivo [11] = settings: Sprague-Dawley, rat, po, 10 mg/kg
in vivo [12] = settings: Sprague-Dawley, rat, po, 10 mg/kg; remark: listed apart in the source
in vitro [13] = settings: mouse, liver microsomes
in vitro [14] = settings: human, liver microsomes
in vitro [15] = settings: mouse, plasma
in vitro [16] = settings: rat, plasma
in vitro [17] = settings: beagle, dog, plasma
in vitro [18] = settings: cynomolgus monkey, plasma
in vitro [19] = settings: human, plasma
in vivo [20] = settings: Sprague-Dawley, rat, po, 10 mg/kg; remark: listed apart in the source
in vivo [21] = settings: Sprague-Dawley, rat, po, 10 mg/kg; remark: listed apart in the source
in vivo [22] = settings: Sprague-Dawley, rat, po, 10 mg/kg; remark: listed apart in the source
in vivo [23] = settings: Sprague-Dawley, rat, po, 10 mg/kg; remark: listed apart in the source
in vitro [24] = settings: rat, liver microsomes
in vitro [25] = settings: beagle, dog, liver microsomes
in vitro [26] = settings: cynomolgus monkey, liver microsomes

Row | Structure (SMILES) | t1/2 [3] | Cmax [6] | AUCt [7] | MRT(t) [8] | CL [9] | Vd [10] | MRT last (in vivo [11]) | bioavailability (in vivo [12]) | half-life (in vitro [13]) | half-life (in vitro [14]) | half-life (in vitro [15]) | half-life (in vitro [16]) | half-life (in vitro [17]) | half-life (in vitro [18]) | half-life (in vitro [19]) | further results
1 | C=CC(=O)N[C@H]1CCOC[C@H]1Nc1ncc2cc(-c3c(Cl)c(OC)cc(OC)c3Cl)ccc2n1 [FISOGATINIB] | 1 min | 1161 ng/mL | 1023.1 ng·h/mL | 1 h | 17 mL/min/kg | 1.4 L/kg | 1.8 h | 79.7% | 0.333 h | 0.42 h | > 4.82 h | > 4.82 h | > 4.82 h | > 4.82 h | > 4.82 h | AUCt [1]: 8155.2 ng·h/mL; t1/2 [2]: 1.2 min; Tmax [4]: 0.5 h; Cmax [5]: 2570.9 ng/mL
2 | CC#CC(=O)Nc1cc(-c2cc3c(cn2)cc(-c2c(Cl)c(OC)cc(OC)c2Cl)c(=O)n3CC)c(OC)cc1N1C[C@H]2C[C@@H]1CO2 | 2 min | 1836.2 ng/mL | 2609.6 ng·h/mL | 1.8 h | 6.7 mL/min/kg | 1.1 L/kg | 2.4 h | 55.4% | 0.735 h | 0.668 h | 3.33 h | > 4.82 h | > 4.82 h | > 4.82 h | 4.77 h | AUC(0-t) (in vivo [20]): 14400 ng·h/mL; half-life (in vivo [21]): 2 min; Tmax (in vivo [22]): 1.4 h; Cmax (in vivo [23]): 3650 ng/mL; half-life (in vitro [24]): 1.22 h; half-life (in vitro [25]): 0.455 h; half-life (in vitro [26]): 0.222 h
